Test results published in article PMC4459685, “Design and characterization of a new peptide vector for short interfering RNA delivery” (Journal of Nanobiotechnology, 2015).

Key:
[1] = test system: siRNA; experiment: Isothermal titration calorimetry, titrating siRNA with GL1; format: binding
Method: The isothermal titration calorimetry experiments were conducted using a Nano-ITC calorimeter (TA Instruments). A 500 μM GL1 peptide solution and a 10 μM siRNA solution were both prepared in RNase-free water. All of the samples were degassed in a degassing station (TA Instruments) prior to the experiments. RNase-free water was placed in the ITC reference cell. For each titration, 2 μl of the peptide in a pipette rotating at 250 rpm was injected into the siRNA solution in the sample cell of the calorimeter, which was equilibrated to 25°C, with an interval of 300 s between injections. The heat of dilution was measured by titrating the GL1 solution into RNase-free water and was later subtracted from the sample measurement. The data were analyzed using NanoAnalyze software v.3.1.2.
The ability of GL1 to interact with siRNA was investigated by gel electrophoresis. Binding between peptide and siRNA prevented RNA from being stained by EtBr. […] At a slightly higher molar ratio 15/1, no free siNRA was detected on the agarose gel. […] This direct binding between cationic peptide and anionic siRNA would be initiated via electrostatic interactions. The formation of GL1-siRNA complexes and the thermodynamic parameters associated with the binding between peptide and siRNA was further investigated using isothermal titration calorimetry by titrating the siRNA with GL1. The heat exchange during the titration of siRNA by GL1 (in RNase-free water) was detected by the machine and output as raw data. By fitting the raw data (upper panel of Figure 2) to a single-site model (lower panel of Figure 2), the thermodynamic parameters during the interaction were obtained and listed in Table 1.
Figure 2 Calorimetric titration of siRNA with GL1 at 25°C in RNasefree water at pH 6. a Corrected thermogram of calorimetric titration of siRNA with GL1. b Binding analysis of siRNA with GL1 by fitting the raw data with an independent model. GL1 concentration was 500 μM and siRNA concentration was 10 μM.

[2] = test system: eGFP siRNA; experiment: Agarose gel-shift assay of peptide-siRNA complex formation; format: binding; conditions: 1.2% agarose gel, 300 ng eGFP siRNA
Method: The GL1-siRNA complexes in RNase-free water were made with 300 ng of eGFP siRNA. The samples of siRNA alone and GL1-siRNA complexes at molar ratios (peptide/siRNA) ranging from 1/1 to 80/1 were electrophoresed on a 1.2% wt/vol agarose gel in 1× TBE at 55 V for 1 h. The ethidium bromide-stained siRNA was visualized on an ultraviolet transilluminator with a camera.
Figure 1 Binding ability of siRNA to GL1 studied by agarose gel-shift assay The formed GL1-siRNA complexes, stained with ethidium bromide, were investigated by electrophoresis on agarose gel (1.2% wt/vol). siRNAs, targeting eGFP genes, were complexed with GL1 at a series of molar ratios from 1/1 to 80/1. Lane 1 was siRNA control, and lanes 2–8 indicated correlated molar ratios. The amount of siRNA was 300 ng.

[3] = test system: CHO-K1 cells; experiment: FACS cellular uptake of Cy3-labeled GAPDH siRNA; format: cell-based, Chinese hamster; conditions: Cy3-labeled GAPDH siRNA 100 nM, 4 h
Method: The uptake of Cy3-labeled siRNA into the CHO-K1 cells was quantified with a BD FACSVantage SE Cell Sorter flow cytometry (BD Biosciences, United States). CHO-K1 cells were plated at a density of 50,000 cells per well and incubated for 24 h in a 24-well flat-bottom plate. The medium was replaced with GL1-siRNA complexes and control samples in OPTI-MEM (Invitrogen) or F12-K supplemented with 10% FBS with a siRNA concentration of 100 nM. After 4 h of incubation, the cells were rinsed with phosphate buffered saline (PBS) and washed with heparin (10 U/ml). After, trypsin–EDTA was added to detach the cells from the plate. The cells were re-suspended in 4% paraformaldehyde (PFA) and ready for quantitative analysis.
Figure 5 a Fluorescence microscope image of GL1-siRNA complexes at molar ratio 40/1 (magnification 40×). The red fluorescence indicated Cy3 labeled siRNA, blue fluorescence represented DAPI stained nuclei. […] Non-treated sample was negative control; Lipo-siRNA complexes were positive control. Cy3 labeled GAPDH siRNA was used here. siRNA concentration was 100 nM in both experiments. NT non-treated, MR peptide/siRNA molar ratio, Lipo Lipofectamine 2000. Results are expressed as mean ± standard deviation (n = 3).

[4] = test system: CHO-K1 cells; experiment: MTT cytotoxicity assay; format: cell-based, Chinese hamster; conditions: siRNA 50 nM, 4 h Opti-MEM then 48 h, molar ratio 10/1
Method: The cytotoxicity of peptide-siRNA complexes was determined by the MTT assay. In brief, cells were seeded at 5,000 cells/well in clear, flat-bottomed, 96-well plates (Costar) 24 h before treatment. After being washed, 100 μl of Opti-MEM that contained peptide-siRNA complexes at different molar ratios was added to the wells and incubated for 4 h. Thereafter, 50 μl of 30% serum containing medium was added, and the cytotoxicity of the relevant reagents was determined by the MTT assay after 48 h. The absorbance at 570 nm was read on a plate reader (FLUOstar OPTIMA, BMG, Germany). The background absorbance of the multiwell plates at 690 nm was determined and subtracted from the 570 nm measurement. The results obtained from triplicate wells were averaged and normalized to the value obtained from the non-treated cells.
Figure 7 Cell viability results of CHO-K1 cells treated with naked Lipofectamine 2000 or GL1, and the complexes with siRNA (50 nM) at different molar ratios. NT non-treated, MR peptide/siRNA molar ratio, Lipo Lipofectamine 2000. Results are expressed as mean ± standard deviation (n = 3). *P value < 0.05, the cell viability after GL1 treatment is statistically significant than that after Lipo treatment.

[5] = test system: siRNA; conditions: cited from earlier work
Description: Here, an amphipathic, cationic peptide GL1 was designed and investigated. Structurally, GL1 has dispersed cationic amino acids along the sequence, which differs from the arginine rich peptide R9, R9-hLF, and Tat. The peptide MPG and MPG-like peptides consist of a hydrophobic domain and a hydrophilic domain which contributes to their amphipathic property; while PF6 and PF14 incorporated a stearyl moiety in their sequences to improve amphiphilicity. However, peptide GL1 has hydrophilic and hydrophobic amino acids dispersed along the sequence, which leads to its amphipathicity ...

[6] = target: T1, GL1 peptide (synthetic (designed)); experiment: EMSA (agarose gel shift, EtBr); peptide/siRNA molar ratios 1/1 to 80/1; no free siRNA at 15/1, strongly reduced at 10/1; 300 ng siRNA; ITC: RNase-free water, pH 6, 25 C, 500 uM GL1 into 10 uM siRNA; gel shift: 1.2% agarose, EtBr, 20 min incubation, buffer not given; conditions: tags: N-terminal acetyl, C-terminal amide
T1 chain: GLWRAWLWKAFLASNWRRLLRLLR

[7] = ITC, 500 μM GL1 titrated into 10 μM siRNA, RNase-free water pH 6, 25°C

**Q.** With Ac-GLWRAWLWKAFLASNWRRLLRLLR-NH2 [GL1] as the molecule, how does the “n (molar stoichiometry, mol GL1 per mol siRNA)” value [1, 7] read?
**A.** 7.16

**Q.** And the “ΔH (enthalpy)” value [1, 7]?
**A.** -4.472 kcal/mol

**Q.** What about the ΔS [1, 7] of the same molecule?
**A.** 64.56 J/(mol K)

**Q.** What about the Kd ([1]; ITC, 500 μM GL1 titrated into 10 μM siRNA, RNase-free water pH 6, 25°C, read-out: Kd (dissociation constant)) of the same molecule?
**A.** 224 nM

**Q.** And the ΔG ([1]; calculated with ΔG = ΔH − TΔS, ITC at 25°C)?
**A.** -9.068 kcal/mol

**Q.** What about the “minimal peptide/siRNA molar ratio for siRNA delivery / complex formation” value [2] of the same molecule?
**A.** around 10/1

**Q.** What about the “peptide/siRNA molar ratio at which no free siRNA is detected (all free siRNA encapsulated)” value ([2]; ethidium bromide, molar ratios 1/1 to 80/1) of the same molecule?
**A.** 15/1

**Q.** And the “cellular uptake of siRNA” value ([3]; F12-K with 10% FBS, molar ratio 20/1, mean n = 3)?
**A.** 75%

**Q.** What about the “cellular uptake of siRNA” value ([3]; F12-K with 10% FBS, molar ratio 40/1, mean n = 3) of the same molecule?
**A.** 84%

**Q.** And the “cellular uptake of siRNA” value ([3]; OPTI-MEM without serum, molar ratio 20/1, mean n = 3)?
**A.** 95%

**Q.** And the “cellular uptake of siRNA” value ([3]; OPTI-MEM without serum, molar ratio 40/1, mean n = 3)?
**A.** 95%

**Q.** And the “cellular uptake of siRNA” value ([3]; in the presence of serum, molar ratio not stated at the place, mean n = 3)?
**A.** ~ 84%

**Q.** And the “cellular uptake of siRNA” value ([3]; serum free, molar ratio not stated at the place, mean n = 3)?
**A.** ~ 95%

**Q.** What about the toxicity [4] of the same molecule?
**A.** did not cause toxicity

**Q.** Which “molar ratio required to encapsulate all the free siRNA” value [5] does the source give for TP10 here?
**A.** 50/1

B1: eGFP siRNA (dsRNA)
RNA 1: GACGUAAACGGCCACAAGUUC
RNA 2: ACUUGUGGCCGUUUACGUCGC
**Q.** Does B1 bind [6]?
**A.** binds
